Calls of active or inactive are those of the source. The rule behind the calls is not given here.
How the values were obtained:
SMA-497 [1] = assay: Induction of cell cycle arrest in mouse SMA-497 cells assessed as accumulation at S phase at 0.1 uM incubated for 72 hrs by propidium iodide/RNase staining based flow cytomtery (Rvb= 8%); type: functional
[2] = Toxicity in VM/Dk mouse xenografted with mouse SMA-540 cells assessed as survival rate at 100 mg/kg,po daily (Rvb=>60%); type: organism-based; settings: in vivo
SMA-497 [3] = assay: Induction of apoptosis in mouse SMA-497 cells assessed as early apoptotic cells at 0.1 uM incubated for 72 hrs by Annexin V-FITC/PI staining based flow cytometric analysis (reference value: 0.015%); type: functional
SMA-497 [4] = assay: Antitumor activity against mouse SMA-497 cells xenografted in VM/Dk mouse assessed as increase in number of tumor-infiltrating CD11b positive monocytes/microglia in tumor at 100 mg/kg,po daily by immunohistochemistry analysis; type: functional, organism-based
GL261 = assay: Antitumor activity against mouse GL261 cells xenografted in C57Bl/6 mouse assessed as increase in number of tumor-infiltrating CD11b positive monocytes/microglia in tumor at 100 mg/kg,po daily by immunohistochemistry analysis; type: functional, organism-based
SMA-497 [5] = assay: Antitumor activity against mouse SMA-497 cells xenografted in VM/Dk mouse assessed as decrease in tumor volume at 100 mg/kg,po daily with 12 Gy irradition after 2days of treatment initiation by H and E staining based microscopy; type: functional, organism-based
SMA-560 [6] = assay: Cytotoxicity against mouse SMA-560 cells assessed as reduction in metabolic activity at 0.001 to 100 uM incubated for 72 hrs by MTT assay; type: functional, cell-based; settings: dose 0.001-100 µM
SMA-560 [7] = assay: Antitumor activity against mouse SMA-560 cells xenografted in VM/Dk mouse assessed as increase in number of tumor-infiltrating CD11b positive monocytes/microglia in tumor at 100 mg/kg,po daily with 12 Gy irradition after 2days of treatment initiation by immunohistochemistry analysis; type: functional, organism-based
SMA-560 [8] = assay: Induction of cell cycle arrest in mouse SMA-560 cells assessed as accumulation at sub G1 phase at 0.1 uM incubated for 72 hrs by propidium iodide/RNase staining based flow cytomtery (Rvb= 2%); type: functional
SMA-560 [9] = assay: Antitumor activity against mouse SMA-560 cells xenografted in VM/Dk mouse assessed as increase in number of tumor-infiltrating CD11b positive monocytes/microglia in tumor at 100 mg/kg,po daily by immunohistochemistry analysis; type: functional, organism-based
SMA-540 = assay: Antitumor activity against mouse SMA-540 cells xenografted in VM/Dk mouse assessed as decrease in tumor volume at 100 mg/kg,po daily by H and E staining based microscopy; type: functional, organism-based
SMA-497 [10] = assay: Antitumor activity against mouse SMA-497 cells xenografted in VM/Dk mouse assessed as decrease in number of CD31-positive intra-tumoral vessels in tumor at 100 mg/kg,po daily by immunohistochemistry analysis; type: functional, organism-based
SMA-497 [11] = assay: Antitumor activity against mouse SMA-497 cells xenografted in VM/Dk mouse assessed as decrease in number of CD31-positive intra-tumoral vessels in tumor at 100 mg/kg,po daily with 12 Gy irradition after 2days of treatment initiation by immunohistochemistry analysis; type: functional, organism-based
[12] = molecular target: Epithelial discoidin domain-containing receptor 1 (Homo sapiens, UniProt Q08345); assay: Binding affinity to DDR1 (unknown origin) assessed as dissociation constant by KINOME scan assay
SMA-497 [13] = assay: Cytotoxicity against mouse SMA-497 cells assessed as reduction in metabolic activity at 0.001 to 100 uM incubated for 72 hrs by MTT assay; type: functional, cell-based; settings: dose 0.001-100 µM

Epithelial discoidin domain-containing receptor 1, sequence (Q08345 whole entry, the tested form may be a part): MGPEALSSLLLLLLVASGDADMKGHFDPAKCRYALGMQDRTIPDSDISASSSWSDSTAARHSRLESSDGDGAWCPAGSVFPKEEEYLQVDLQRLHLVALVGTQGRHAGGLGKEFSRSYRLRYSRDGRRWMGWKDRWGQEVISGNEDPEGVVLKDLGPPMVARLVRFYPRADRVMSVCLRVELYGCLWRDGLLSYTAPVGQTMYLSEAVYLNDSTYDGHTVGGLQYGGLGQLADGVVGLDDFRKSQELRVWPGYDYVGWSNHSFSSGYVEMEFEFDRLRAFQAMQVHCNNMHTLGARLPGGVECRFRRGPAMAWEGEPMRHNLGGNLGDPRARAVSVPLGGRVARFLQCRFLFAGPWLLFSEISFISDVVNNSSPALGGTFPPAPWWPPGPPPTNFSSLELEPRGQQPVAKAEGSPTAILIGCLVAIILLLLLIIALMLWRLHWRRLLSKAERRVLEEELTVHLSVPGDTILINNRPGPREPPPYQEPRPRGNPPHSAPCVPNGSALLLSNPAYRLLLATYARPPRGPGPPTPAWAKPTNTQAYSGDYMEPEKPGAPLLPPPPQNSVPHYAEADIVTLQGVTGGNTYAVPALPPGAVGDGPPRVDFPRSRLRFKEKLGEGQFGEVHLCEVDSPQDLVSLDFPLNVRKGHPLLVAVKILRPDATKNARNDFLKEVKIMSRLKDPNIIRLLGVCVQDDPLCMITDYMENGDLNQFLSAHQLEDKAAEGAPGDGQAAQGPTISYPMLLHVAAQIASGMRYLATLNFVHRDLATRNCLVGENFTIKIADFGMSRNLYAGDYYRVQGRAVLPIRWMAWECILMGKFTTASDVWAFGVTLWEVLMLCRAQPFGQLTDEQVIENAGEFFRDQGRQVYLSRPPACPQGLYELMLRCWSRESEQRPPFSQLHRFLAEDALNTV

`Cc1cc(C)c(-n2ccn3nc(-c4cccnc4)cc23)cc1NC(=O)c1cc(C#N)cc(S(F)(F)(F)(F)F)c1` [BAY-826] gave an Activity (SMA-497 [1]) of 11%, a Survival [2] greater than 60% and an Activity (SMA-497 [3]) of 0%. For the same compound, the Activity (SMA-497 [4]) was “Active”, the Activity (GL261) was “inactive” and the Activity (SMA-497 [5]) was “inactive”. For the same compound, the Activity (SMA-560 [6]) was “inactive”, the Activity (SMA-560 [7]) was “Active” and the Activity (SMA-560 [8]) was 2%. The Activity (SMA-560 [9]) was “inactive”, the Activity (SMA-540) was “inactive” and the Activity (SMA-497 [10]) was “inactive”. For the same compound, the Activity (SMA-497 [11]) was “Active”, the Kd [12] was 0.4 nM and the Activity (SMA-497 [13]) was “inactive”.

Reference: ChEMBL document CHEMBL5653627 (J Neurochem, 2017)
